Legend:
Type in all cases: in vivo
[1] = tested on: Rhipicephalus (Boophilus) microplus larvae (strain Parkhurst, resistant against synthetic pyrethroids); assay: Rhipicephalus (Boophilus) microplus in-vitro contact test, larval cattle tick; settings: Rhipicephalus microplus; 1 μg/cm^2 (=100 g/ha), after 48 hours; read-out: efficacy (larvae dead or moribund)
In short: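 Compound in acetone coated on glass tube inner walls; 900 ppm solution gives 5 μg/cm^2. Pyrethroid-resistant Parkhurst larvae (20-50 per tube) held at 27° C., 85% relative humidity; efficacy assessed after 48 h by scoring negative geotactic behavior after tapping larvae to tube bottom.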

[2] = tested on: adult engorged female ticks (Rhipicephalus microplus); assay: Rhipicephalus (Boophilus) microplus injection test; settings: 4 μg/tick, after 7 days
Method: Rhipicephalus (Boophilus) Microplus—Injection Test
(§1) Solvent: Dimethyl Sulfoxide
To produce a suitable preparation of active compound, 10 mg of active compound are dissolved in 0.5 mL solvent, and the concentrate is diluted with solvent to the desired concentration.
Five adult engorged female ticks (Rhipicephalus microplus) are injected with 1 μL compound solution into the abdomen. The ticks are transferred into replica plates and incubated in a climate chamber.
After 7 days egg deposition of fertile eggs is monitored. Eggs where fertility is not visible are stored in a climate chamber till hatching after about 42 days. An efficacy of 100% means all eggs are infertile; 0% means all eggs are fertile.

[3] = tested on: adult cat fleas (Ctenocephalides felis); assay: Ctenocephalides felis in-vitro contact test, adult cat flea; settings: Ctenocephalides felis; 1 μg/cm^2 (=100 g/ha), after 48 hours; read-out: efficacy (fleas dead or moribund)
Method: Ctenocephalides Felis—In-Vitro Contact Tests Adult Cat Flea
(§2) 9 mg compound is solved in 1 mL acetone and diluted with acetone to the desired concentration. 250 μL of the test solution is filled in 25 mL glass test tubes and homogeneously distributed on the inner walls by rotation and tilting on a shaking device (2 h at 30 rpm). With a compound concentration of 900 ppm, an inner surface of 44.7 cm^2 and a homogeneous distribution, a dose of 5 μg/cm^2 is achieved.
(§3) After the solvent has evaporated, each test tube is filled with 5-10 adult cat fleas (Ctenocephalides felis), closed with a perforated lid and incubated in a lying position at room temperature and relative humidity. After 48 hours efficacy is determined. The fleas are patted on the ground of the tubes and are incubated on a heating plate at 45-50° C. for at most 5 minutes. Immotile or uncoordinated moving fleas, which are not able to escape the heat by climbing upwards, are marked as dead or moribund.
An efficacy of 100% means all fleas are dead or moribund; 0% means no fleas are dead or moribund.

[4] = tested on: adult unfed cat fleas (Ctenocephalides felis); assay: Ctenocephalides felis oral test; settings: 48 h, 100 ppm in citrated cattle blood, after 2 days
Method: Ctenocephalides felis—Oral Test
as §1
To produce a suitable preparation of active compound, 10 mg of active compound are dissolved in 0.5 mL solvent, and the concentrate is diluted with citrated cattle blood to the desired concentration.
Approximately 20 adult unfed cat fleas (Ctenocephalides felis) are placed in a flea chamber whose top and bottom is covered with gauze. A chamber whose bottom is sealed with parafilm, is filled with the blood-compound solution and placed on top of the flea chamber, so that the fleas can suck the blood. The blood chamber is heated to 37° C. whereas the flea chamber is kept at room temperature.
After 2 days mortality in % is determined. 100% means all the fleas have been killed; 0% means none of the fleas have been killed.

[5] = tested on: adult brown dog ticks (Rhipicephalus sanguineus); assay: Rhipicephalus sanguineus in-vitro contact test, adult brown dog ticks; settings: Rhipicephalus sanguineus; 1 μg/cm^2 (=100 g/ha), after 48 hours; read-out: efficacy (ticks dead or moribund)
Method: Rhipicephalus sanguineus—In-Vitro Contact Tests with Adult Brown Dog Ticks
as §2
as §3, with “brown dog ticks (Rhipicephalus sanguineus),” for “cat fleas (Ctenocephalides felis),”, “ticks” for “fleas”, “ticks,” for “fleas,”
An efficacy of 100% means all ticks are dead or moribund; 0% means no ticks are dead or moribund.

[6] = tested on: green peach aphid (Myzus persicae); assay: Myzus persicae spray test (MYZUPE); settings: in Brassica rapa, foliar, 120 h
Method: Myzus persicae—Spray Test
(§4) Solvent: 78.0 parts by weight acetone • 1.5 parts by weight dimethylformamide
(§5) Emulsifier: alkylarylpolyglycol ether
(§6) To produce a suitable preparation of active compound, 1 part by weight of active compound is mixed with the stated amount of solvents and is diluted with water, containing an emulsifier concentration of 1000 ppm, to the desired concentration. Further test concentrations are prepared by dilution with emulsifier containing water.
Chinese cabbage (Brassica pekinensis) leaf disks infected with all instars of the green peach aphid (Myzus persicae), are sprayed with a preparation of the active ingredient of the desired concentration.
After 5 days mortality in % is determined. 100% means all aphids have been killed and 0% means none of the aphids have been killed.
Myzus persicae—Spray Test (MYZUPE
After the specified period of time, mortality in % is determined. 100% means all aphids have been killed and 0% means none of the aphids have been killed.

[7] = tested on: larvae of the southern green stink bug (Nezara viridula); assay: Nezara viridula spray test; settings: Nezara viridula, in Hordeum vulgare, 96 h
Method: Nezara viridula—Spray Test
(§7) Solvent: 78.0 parts by weight of acetone • • 1.5 parts by weight of dimethylformamide
as §5
as §6, with “solvent,” for “solvents”, “and the concentrate” for “and”
Barley plants (Hordeum vulgare) are sprayed with a test solution containing the desired concentration of the active ingredient and are infested with larvae of the southern green stink bug (Nezara viridula).
After 4 days mortality in % is determined. 100% means all the stink bugs have been killed; 0% means none of the stink bugs have been killed.

[8] = tested on: brown planthopper (Nilaparvata lugens); assay: Nilaparvata lugens spray test; settings: Nilaparvata lugens, in Oryza sativa, 96 h
Method: Nilaparvata lugens—Spray Test
as §7, §5, §6
Rice plants (Oryza sativa) are sprayed with a preparation of the active ingredient of the desired concentration and the plants are infested with the brown planthopper (Nilaparvata lugens).
After 4 days mortality in % is determined. 100% means all planthoppers have been killed and 0% means none of the planthoppers have been killed.

[9] = tested on: fall armyworm larvae (Spodoptera frugiperda); assay: Spodoptera frugiperda spray test (SPODFR); settings: in Zea mays, 168 h
Method: Spodoptera frugiperda—Spray Test
as §4, §5, §6
Maize (Zea mays) leaf sections are sprayed with a preparation of the active ingredient of the desired concentration. Once dry, the leaf sections are infested with fall armyworm larvae (Spodoptera frugiperda).
After 7 days mortality in % is determined. 100% means all caterpillars have been killed and 0% means none of the caterpillars have been killed.
Spodoptera frugiperda—Spray Test (SPODFR
After the specified period of time, mortality in % is determined. 100% means all caterpillars have been killed and 0% means none of the caterpillars have been killed.

[10] = tested on: larvae of the banded cucumber beetle (Diabrotica balteata); assay: Diabrotica balteata spray test; settings: Diabrotica balteata, 168 h; 100 g/ha (=32 μg/well), wheat seeds, after 7 days; read-out: efficacy (seedlings grown)
In short: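 Germinated wheat seedlings (5 per well, on agar) sprayed with compound in acetone/DMF with emulsifier-containing water, then infested with 10–20 Diabrotica balteata larvae. Efficacy (%) scored after 7 days from seedling growth: 100% = growth as untreated uninfested control, 0% = no seedlings grown.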

[11] = tested on: adult mosquitoes Aedes aegypti strain MONHEIM; assay: Aedes aegypti test (AEDSAE surface treatment & contact assay); settings: surface concentration 4 mg/m^2, 30 min exposure, 24 hours after contact, read-out: efficacy (mortality)
Method: Aedes aegypti Test (AEDSAE Surface Treatment & Contact Assay
(§8) Solvent: Aceton+2000 ppm rapeseed oil methyl ester (RME)
In order to produce a sufficient, active ingredient containing solution it is necessary to solve the test compound in the solvent-mix (acetone at 2 mg/ml/RME 2000 ppm). This solution is pipetted onto a glazed tile and after evaporation of the acetone, adult mosquitoes of the species Aedes aegypti strain MONHEIM are placed onto the dried surface. The exposure time is 30 minutes. Mortality in percent (%) is determined 24 hours after contact of the insects to the treated surface. 100% mortality means that all tested insects are dead, whereas 0% means that no insect died.

[12] = tested on: adult Blattella germanica strain PAULINIA; assay: Blattella germanica test (BLTTGE surface treatment & contact assay); settings: surface concentration 20 mg/m^2, 30 min exposure, 24 hours after contact, read-out: efficacy (mortality)
Method: Blattella germanica Test (BLTTGE Surface Treatment & Contact Assay
as §8
In order to produce a sufficient, active ingredient containing solution it is necessary to solve the test compound in the solvent-mix (acetone at 2 mg/ml/RME 2000 ppm). This solution is pipetted onto a glazed tile and after evaporation of the acetone, adult animals of the species Blattella germanica strain PAULINIA are placed onto the dried surface. The exposure time is 30 minutes.
Mortality in percent (%) is determined 24 hours after contact of the insects to the treated surface. 100% mortality means that all tested insects are dead, whereas 0% means that no insect died.

| Structure (SMILES) | pest or weed control at 1 µg/cm2 [1] | efficacy (infertile eggs) [2] | pest or weed control at 1 µg/cm2 [3] | mortality at 100 ppm [4] | pest or weed control at 1 µg/cm2, 100 g/ha [5] | mortality at 100 g/ha [6] | mortality at 500 g/ha [7] | mortality at 500 g/ha [8] | mortality at 100 g/ha [9] | pest or weed control at 32 µg/disc, 100 g/ha [10] | mortality at 4 mg/m2 [11] | mortality at 20 mg/m2 [12] |
| --- | --- | --- | --- | --- | --- | --- | --- | --- | --- | --- | --- | --- |
| C[C@H](NC(=O)c1cc(C(F)(F)F)cc(C(F)(F)F)c1)c1ncnn1-c1cnc(C(N)=O)cn1 [Example I-010] | 100% | 100% | 100% | 100% | 100% | 90% | 100% | 100% | 100% | – | – | – |
| CCN(C)C(=O)c1cnc(-n2nc(C)nc2[C@H](C)NC(=O)c2cc(C(F)(F)F)cc(C(F)(F)F)c2)cn1 [Example I-016] | 100% | – | 100% | – | 100% | 100% | 100% | 100% | 100% | – | – | – |
| C[C@H](NC(=O)c1cc(C(F)(F)F)cc(C(F)(F)F)c1)c1ncnn1-c1cnc(C(=O)N(C)C)cn1 [Example I-005] | 100% | 100% | 100% | 100% | 100% | 100% | – | 100% | 100% | – | – | – |
| Cc1nc([C@H](C)NC(=O)c2cc(OC(F)(F)F)cc(C3CC3)c2)n(-c2cnc(C(=O)N(C)C)cn2)n1 [Example I-047, 5-(5-{(1S)-1-[3-Cyclopropyl-5-(trifluoromethoxy)benzamido]ethyl}-3-methyl-1H-1,2,4-triazol-1-yl)-N,N-dimethylpyrazine-2-carboxamide] | 100% | – | 100% | – | 100% | 90% | 100% | 100% | 100% | 80% | – | – |
| Cc1nc([C@H](C)NC(=O)c2cc(C(F)(F)F)cc(C(F)(F)F)c2)n(-c2cnc(C(=O)N(C)C)cn2)n1 [Example I-015] | 100% | – | 100% | – | 100% | 90% | 100% | 100% | 100% | – | – | – |
| CCN(C)C(=O)c1cnc(-n2ncnc2[C@H](C)NC(=O)c2cc(C(F)(F)F)cc(C(F)(F)F)c2)cn1 [Example I-006] | 100% | 100% | 100% | 100% | 100% | 100% | – | 100% | 100% | – | – | – |
| Cc1nc([C@H](C)NC(=O)c2cc(C(F)(F)F)cc(C(F)(F)F)c2)n(-c2cnc(C(=O)N(C)C3CC3)cn2)n1 [Example I-001] | 100% | 100% | 100% | 100% | 100% | 90% | 100% | 100% | 100% | – | – | – |
| CNC(=O)c1cnc(-n2ncnc2[C@H](C)NC(=O)c2cc(OC(F)(F)F)cc(S(C)(=O)=O)c2)cn1 [Example I-019] | 100% | – | 100% | – | 100% | 90% | 100% | 100% | 100% | 100% | 80 to 100% | 80 to 100% |
| C[C@H](NC(=O)c1cc(OC(F)(F)F)cc(C2CC2)c1)c1ncnn1-c1cnc(C(=O)N(C)C2CC2)cn1 [Example I-003] | 100% | 100% | 100% | 100% | 80% | 90% | – | – | 100% | 100% | – | – |

Source: patent publication US20240368125A1, “NOVEL PYRAZINYL-TRIAZOLE COMPOUNDS AS PESTICIDES” (Bayer Aktiengesellschaft, priority 2021, published 2024)
